This experiment relates to Spodoptera frugiperda. The experiment can be described thus: Insecticidal activity against first-instar larval-stage of Spodoptera frugiperda (fall armyworm) strain corn in compound-pretreated corn leaves assessed as mortality rate at 2000 mg/kg. The class given is functional.

Here are results for 13 compounds from ChEMBL document CHEMBL3046128, “Sustainable synthesis of flavonoid derivatives, QSAR study and insecticidal activity against the fall armyworm, Spodoptera frugiperda (Lep.: Noctuidae)” (2010).

Each structure is given as a SMILES string.

For the compound `O=c1cc(-c2ccccc2)oc2ccc(Br)cc12` [6-BROMOFLAVONE], the LT50 was 43.86 h and the log10LT50 stood at 1.642.
The matching figures for `O=c1cc(-c2ccccc2)oc2cc(O)ccc12` [7-HYDROXYFLAVONE]: 106.94 h and 2.029.
On the same counts, the results for `O=c1cc(-c2ccccc2)oc2cc(Br)ccc12` [7-BROMOFLAVONE] are 89.73 h and 1.953.
On the same counts, the results for `O=c1cc(-c2ccccc2)oc2cc(F)ccc12` [7-FLUOROFLAVONE] are 63.76 h and 1.805.
With `O=c1cc(-c2ccccc2)oc2ccc(Cl)cc12` [6-CHLOROFLAVONE], the LT50 turned out to be 53.36 h and the log10LT50 is recorded as 1.727.
On the same counts, the results for `O=c1c2ccccc2oc2ccccc12` [XANTHONE] are 53.78 h and 1.731.
On the same counts, the results for `Cc1ccc2c(=O)cc(-c3ccccc3)oc2c1` [7-METHYLFLAVONE] are 105.46 h and 2.023.
On the same counts, the results for `O=c1cc(-c2ccccc2)oc2ccccc12` [FLAVONE] are 51.19 h and 1.709.
Regarding `O=C1CC(c2ccccc2)Oc2ccccc21` (stereo not given) [FLAVANONE], the log10LT50 came out at 1.656.
`COc1ccc2c(=O)cc(-c3ccccc3)oc2c1` [7-METHOXYFLAVONE]: the LT50 stood at 114.38 h and the log10LT50 is given as 2.058.
The matching figures for `Cc1ccc2oc(-c3ccccc3)cc(=O)c2c1` [6-METHYLFLAVONE]: 93 h and 1.968.
On the same counts, the results for `O=c1cc(-c2ccccc2)oc2cc(Cl)ccc12` [7-CHLOROFLAVONE] are 29.33 h and 1.467.
The matching figures for `O=c1ccoc2ccccc12` [CHROMONE]: 55.42 h and 1.744.
